Measured values published in patent US20110033430A1, “METHODS FOR THE INDUCTION OF A CELL TO ENTER THE ISLET 1+ LINEAGE AND A METHOD FOR THE EXPANSION THEREOF” (THE GENERAL HOSPITAL CORPORATION, priority 2007, published 2011).
“Also recorded” adds a separate entry of the source.

Legend:
other protein kinases = settings: Plotkin et al., 2003; cited from earlier work
[1] = system: postnatal isl1+ cardiovascular progenitors; assay: Expansion of postnatal isl1+ cardiovascular progenitors, isl1 immunostaining; format: cell-based, mouse; design: increase of number of isl1+ progenitors versus control: dose or concentration left out as unconfirmed; settings: for number of isl1+ progenitors: isl1 immunostaining, versus control
Experimental: Immunohistochemical Analyses and lacZ Staining. Cells in culture or paraffin embedded sections were fixed with 4% paraformaldehyde and subjected to immunostaining. For mouse embryo cryosections, they were saturated with 20% sucrose followed by section and 2% PFA fix for 10 min at room temperature. The following primary antibodies were used in this study: isl1 (mouse monoclonal antibody, clone 39.4D5, clone 2D6 (Developmental Studies Hybridoma Bank, 1:100), cardiac troponin T (mouse monoclonal antibody, NeoMarkers, 1:200), smooth muscle myosin heavy chain (rabbit polyclonal, Biomedical Technologies Inc., 1:100), smooth muscle actin (mouse monoclonal, clone 1A4, Dako, 1:100; rabbit polyclonal, Abcam), phosphohistone H3 (rabbit polyclonal, Upstate). Alexa Fluor 488- or Alexa Fluor 594-conjugated secondary antibodies specific to the appropriate species were used (Molecular Probes, 1:350). 3D reconstruction was done using Winsuf from Surfdriver Software. For immunoperoxidase staining, the VECTASTAIN ABC® system (VECTOR Laboratories) was used, accordingly to the vendors' instructions. 5 μm frozen sections and cultured cells were fixed with 0.2% and 0.05% glutaraldehyde respectively for 10 min at 4° C. followed by 3 times wash with PBS. LacZ stainings were then performed on these samples by incubating with X-Gal solution containing 40 mM HEPES, pH 7.4, 5 mM K3(Fe(CN)6), 5 mM K4(Fe(CN)6), 2 mM MgCl2, 15 mM NaCl, and 1 mg/ml X-Gal. For LacZ staining on EB-derived clones expanded on CMC, 0.02% NP-40 was added to the X-Gal solution for better permeabilization. When combining LacZ staining with immunoperoxidase analyses, samples were processed first for LacZ staining at room temperature over night, followed by a re-fixation with 4% paraformaldehyde prior to the immunoperoxidase stainings for specific epitopes or by re-fixation with 2% gluteraldehyde to perform EM studies.
Statistic Analysis. Data were analyzed with two-tailed Student's t test and the results reported are statistically significant with p value <0.05. Standard error of the mean (SEM) is given for each mean value. For immunofluorescent analyses for postnatal isl1^+ cardiovascular progenitors, the cells within the whole well in an 8-well chamber slide were examined for Isl1 expression to obtain better statistic comparison.
Although there was only a small increase over the control, the effect of these compounds was highly reproducible and statistically significant (p<0.05, 0.01, or 0.001, FIG. 2C). […] Two of these compounds were unknown (compound A and compound B), and the third was 6-bromoindirubin-3′-oxime (BIO), previously shown to be an inhibitor of GSK-3 (Meijer et al., 2003). BIO has been recently shown to promote self-renewal of both human and mouse ES cells through activation of the wnt/β-catenin pathway in combination with other signaling inputs (Sato et al., 2004). The inventors explored the role of BIO on the renewal of isl1^+ progenitors.
Wnt/β-Catenin Pathway Plays a Pivotal Role in the Control of Isl1+ Progenitor Expansion. […] The inventors examined whether Wnt3a, a well-established ligand in the Wnt/β-catenin pathway (Logan and Nusse, 2004), was able to expand postnatal isl1^+ progenitors.

[2] = system: isl1-nlacZ knockin ES cell-derived precursors; assay: Prespecification of mesodermal precursors toward MICPs on CMC feeder, single β-gal+ cells after 24 hr; format: cell-based, mouse; settings: 24 hr on CMC feeder, versus control
Experimental: Immunohistochemical Analyses and lacZ Staining. Cells in culture or paraffin embedded sections were fixed with 4% paraformaldehyde and subjected to immunostaining. For mouse embryo cryosections, they were saturated with 20% sucrose followed by section and 2% PFA fix for 10 min at room temperature. The following primary antibodies were used in this study: isl1 (mouse monoclonal antibody, clone 39.4D5, clone 2D6 (Developmental Studies Hybridoma Bank, 1:100), cardiac troponin T (mouse monoclonal antibody, NeoMarkers, 1:200), smooth muscle myosin heavy chain (rabbit polyclonal, Biomedical Technologies Inc., 1:100), smooth muscle actin (mouse monoclonal, clone 1A4, Dako, 1:100; rabbit polyclonal, Abcam), phosphohistone H3 (rabbit polyclonal, Upstate). Alexa Fluor 488- or Alexa Fluor 594-conjugated secondary antibodies specific to the appropriate species were used (Molecular Probes, 1:350). 3D reconstruction was done using Winsuf from Surfdriver Software. […]
The wnt/β-Catenin Pathway Regulates the Prespecification, Expansion, and Differentiation of Isl1+ Cardiovascular Progenitors. […] To score the effect of the CMC feeder on the prespecification of mesodermal precursors toward MICPs, the inventors quantified the single b-gal^+ cells 24 hr after treatment with various reagents (FIG. 7A). […]

murine Wls/Evi = target: T1, murine Wls/Evi (Mus musculus, UniProt Q6DID7); assay: Wnt reporter (superTOPFLASH) coculture with siRNA-transfected Wnt3a-producing cells, luciferase; format: cell-based; settings: coculture with transfected Wnt3a-secreting cells, versus control
T1 construct: endogenous in cells; host or cells: Wnt3a-producing (Wnt3a-secreting) cell line (ATCC), cocultured with superTOPFLASH Wnt reporter cells
T1 sequence (Q6DID7 1-541): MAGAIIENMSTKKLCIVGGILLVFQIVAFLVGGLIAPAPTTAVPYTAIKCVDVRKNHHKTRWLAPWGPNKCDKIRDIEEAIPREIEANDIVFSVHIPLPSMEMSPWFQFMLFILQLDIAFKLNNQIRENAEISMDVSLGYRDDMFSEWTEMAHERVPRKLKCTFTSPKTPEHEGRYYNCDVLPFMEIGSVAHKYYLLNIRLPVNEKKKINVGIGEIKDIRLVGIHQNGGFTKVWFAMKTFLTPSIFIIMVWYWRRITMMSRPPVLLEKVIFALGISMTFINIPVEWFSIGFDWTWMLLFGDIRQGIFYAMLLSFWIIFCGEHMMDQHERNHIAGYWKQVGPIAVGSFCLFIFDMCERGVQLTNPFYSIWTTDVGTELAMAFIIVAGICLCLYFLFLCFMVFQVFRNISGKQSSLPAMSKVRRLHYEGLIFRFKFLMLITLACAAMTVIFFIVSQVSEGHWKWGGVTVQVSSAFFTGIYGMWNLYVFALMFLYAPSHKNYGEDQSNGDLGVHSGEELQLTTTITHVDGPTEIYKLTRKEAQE
From the text: Production of Reagents for Wnt Pathway. Wnt3a or control-conditioned medium was produced as following. A Wnt3a-secreting cell line (ATCC) was allowed to grow to conflency and subcultured at 1:20 ratio prior to replenish with fresh medium. Three batches of conditioned medium were harvested every 48 hrs. Dkk1-conditioned medium was produced by transiently transfecting a Dkk1-expressing cDNA (generously provided by Dr. Randall T. Moon) into the HEK293T cell line with FuGENE 6 (Roche). The supernatant was harvested 72 hrs after transfection. A Wnt-reporter cell line, superTOPFLASH, was a generous gift from Dr. Randall T. Moon.
Small hairpin RNAs (shRNAs) oligonucleotide sequences were designed based on the following target sequences: siWLS-A ([…]) (SEQ ID NO:1) and siWLS-B (GGGTTACCGTGATGATATG, (SEQ ID NO:2) and subcloned into the retro-viral vector, RNAi-Ready pSIREN-RetroQ-DsRed-Express (Clontech) according to vendor's instructions. Negative control shRNA annealed oligonucleotide was provided by the vendor and cloned to the same vector. Retro-viral siRNAi particles were produced by transiently transfect these vectors into the packaging cell line EcoPack 2-293 cells with GENE 6 (Roche). Viral supernatant was harvested 72 hrs after transfection.
The inventors confirmed this effect by blocking the secretion of Wnt ligands from the CMC. […]

[3] = system: anterior heart field isl1+ progenitors (AHF-GFP ES cells); assay: Expansion of ES cell-derived anterior heart field GFP+/isl1+ cells on CMC feeder, FACS; format: cell-based, mouse; settings: 7 days on CMC feeder, versus control
Experimental: Differentiation was induced by forming embryoid bodies (EB's) in hanging drops of 600 cells in 15 μL of media without LIF. On day 6, the EB's were trypsinized into single cell suspension and sorted on the basis of GFP expression using flow cytometry. GFP positive cells were plated on a neonatal cardiac mesenchymal feeder layer for 7 days with one of four conditions: DMSO, BIO, and conditioned media from either control cells (L-Cells) or cells overexpressing wnt3A. After 7 days of expansion on the cardiac mesenchymal feeder layer, the cells were trypsinized and FACS sorted. Differentiation of the GFP positive cells was triggered as follow: into myocytes, on fibronectin by using DMEM/M199 (4:1 ratio) medium containing 10% horse serum and 5% FBS; into SM cells, on fibronectin by using DMEM/F12 containing B27 supplement, 2% FBS, and 10 ng/ml EGF.
To directly determine whether Wnt ligands are secreted from the CMC to promote the renewal of isl1^+ progenitors in a paracrine manner, the inventors developed an in vitro reconstitution of the mesenchymal niche.
To further characterize the nature of the CMC-derived cues, the inventors tested the ability of Wnt3a to reproduce this effect.

CMC = assay: Cleaved caspase-3 immunostaining (apoptosis); format: cell-based, mouse; settings: treated CMC
From the text: To further validate the specificity of BIO function, the inventors tested two other ATP-competitive GSK-3-specific inhibitors: an acetoxime analog of BIO and 1-Azakenpaullone (Kunick et al., 2004; Meijer et al., 2003). […] Taken together, the inventors have discovered that BIO promotes the expansion of isl1+ progenitors by inhibiting GSK-3 activity.

[4] = system: postnatal isl1+ progenitors in cardiac mesenchymal cells (CMC); assay: High-throughput chemical screening: β-gal activity quantified by luminescence (Beto-Glo); format: cell-based, mouse; settings: CMC with isl1+ progenitors, 4 days treatment, versus DMSO control
Experimental: Progenitors and High-Throughput Chemical Screening. […] Briefly, 30-40 hearts from 1-5 day-old isl1-mER-Cre-mER/R26R pups were used to prepare CMC, containing isl1+ progenitors marked by β-galactosidase. 4-OH-TM (Sigma), active form of tamoxifen, was added to the culture 1 day after plating at 1 μm. These were expanded for 7 days, trypsinized, and seeded at a density of 3,000 cells per well in 384-well plates.
Isolation of Murine Postnatal Cardiac Progenitors and High-throughput Chemical Screening. […] Briefly, 30-40 hearts from 1-5 day-old is1-mER-Cre-mER/R26R pups were used to prepare CMC, containing isl1^+ progenitors marked by β-galactosidase. 4-OH-TM (Sigma), active form of tamoxifen, was added to the culture 1 day after plating at 1 μm. These were expanded for 7 days, then trypsinized, and seeded at a density of 3,000 cells per well in a 384-well plate.
To find cardiac mesenchymal cells (CMC)-derived environmental cues involved in the renewal of isl1+ progenitors, the inventors developed a high-throughput chemical screening system, based on the coculture of CMC with postnatal isl1+ progenitors (FIG. 2A). […] The inventors used this library to screen for small molecules that would expand the rare population of postnatal isl1+ progenitors.

[5] = system: human neonatal isl1+ progenitors; assay: Expansion of human neonatal isl1+ progenitors, isl1 immunostaining; format: cell-based; settings: human neonatal CMC, 4 days
Experimental: Isolation and Cell Culture Conditions of Human Postnatal Cardiac Progenitors. Biopsies are cut in small pieces and washed in solution A (10 mM Hepes, 35 mM NaCl, 10 mM glucose, 134 mM sucrose, 16 mM Na2HPO4, 25 mM NaHCO3, 7.75 mM KCl, 1.18 mM KH2PO4, pH 7.4), supplemented with 30 mM 2,3 butanedione 2-monoxime and 0.5 mM EGTA. First digestion step is performed in solution A supplemented with 0.5% BSA, 200 UI/ml of collagenase type II (Worthington) and 6 UI/ml protease type XXIV (Sigma) for 20 min at 37° C. to remove red blood cells and cell debris. Four digestion steps are performed in solution A supplemented with 400 UI/ml collagenase type V for 20 min at 37° C. and centrifuged at 30×g for 1 min. The supernatant is neutralized from the collagenase by adding ⅕ of NCS (newborn calf serum) and are centrifuged at 1300 rpm for 3-5 min. Pellet is resuspended in DMEM supplemented with 10% NCS, 5% FBS and Pen-Strep, and cells are seeded on chamber slide. BIO was added to the culture at different doses in complete progenitor medium and cultured for 4 days prior to immunostaining for Isl1.
In order to test whether BIO was capable of expanding human neonatal isl1^+ progenitors, human neonatal CMC were isolated from the biopsies of patients with congenital heart defects into single cells and cultured for 4 days in the presence or absence of BIO.

GSK-3 peptide inhibitor: cell-permeable and substrate-competitive GSK-3 peptide inhibitor (GKEAPPAPPQSP)
inhibitory effect on other protein kinases (other protein kinases): negligible inhibitory effect
number of isl1+ progenitors [1]: significantly expand

O=C1Cc2c([nH]c3ccc(Br)cc23)-c2ncccc2N1 [1-Azakenpaullone]
number of isl1+ progenitors [1]: substantially increased

siWLS-A: siRNA/shRNA against murine Wls/Evi, target sequence CACAAATCCTTTCTACAGTAT (the letters are possibly those of the target site)
formation of MICPs (single β-gal+ cells) [2]: significantly increased
luciferase activity of Wnt reporter cells (Wnt3a secretion) (murine Wls/Evi): significant reduction; also recorded: significantly decreased

CC(=O)O/N=C1/C(=C2/C(=O)Nc3cc(Br)ccc32)Nc2ccccc21 [acetoxime analog of BIO]
number of isl1+ progenitors [1]: substantially increased

O=C1Nc2cc(Br)ccc2/C1=C1/Nc2ccccc2/C1=N\O [BIO, 6-bromoindirubin-3′-oxime]
expansion of GFP+/Isl1+ anterior heart field cells [3]: marked expansion; also recorded: greater expansion
apoptosis, cleaved caspase-3 immunostaining (CMC): no appreciable apoptosis
β-gal activity (luciferase activity) [4]: significantly increase
number of human Isl1+ progenitors [5]: markedly increased
increase of number of isl1+ progenitors versus control [1]: 7 fold
cluster formation of isl1+ progenitors, increase versus control ([1]; BIO at 2.5 μM): 11.6 fold
number of isl1+ progenitors [1]: substantially increase; also recorded: increased the number of isl1^+ progenitors in a dose-dependent manner
formation of isl1+ clusters ([1]; versus control treated samples): promoted isl1^+ progenitors to form large clusters

siWLS-B: siRNA/shRNA against murine Wls/Evi, target sequence GGGTTACCGTGATGATATG (the letters are possibly those of the target site)
luciferase activity of Wnt reporter cells (Wnt3a secretion) (murine Wls/Evi): significant reduction; also recorded: significantly decreased
